Results published in patent US12275711B2, “Compounds having excited state intramolecular proton transfer (ESIPT) character for use in treating and/or preventing sunburn and/or preventing U.V. damage” (UNIVERSITY OF THE WITWATERSRAND, JOHANNESBURG, priority 2019, dated 2025).
Read-outs that look alike come from different tables or passages of the source. Each block holds one compound with its values, some of them ahead of it.

Tests used:
[1] = in L mol-1 cm-1, cited from earlier work
[2] = UV absorbance, molar absorptivity coefficients (ε) of the synthesized compounds; assay type: physicochemical
Method: The synthesized compounds 4c, 5, 6, 9, 10, 13a, 13b, 14, 20, 21, and 23, were analysed for their UV absorbances and their molar absorptivity coefficients (e) were determined.

Structure (SMILES): CCCCC(CC)COC(=O)C=Cc1ccc(OC)cc1 (centres unmarked) [2-ethylhexyl 4-methoxycinnamate]
experimental molar absorption coefficient ([1]; at 356 nm): 39,470

experimental ε value (molar absorptivity coefficient) ([2]; at 261 nm): 36,366 L mol^−1 cm^−1 | experimental ε value (molar absorptivity coefficient) ([2]; at 335 nm): 10,538 L mol^−1 cm^−1
Structure (SMILES): CCCCCCCCCCCCCCCc1cccc(O)c1C(=O)c1ccccc1O [Compound 4c, [2-(Hydroxy)-6-pentadecylphenyl](2-hydroxyphenyl)methanone]

ε value (molar absorptivity coefficient) ([2]; at 265 nm): 18,439 L mol^−1 cm^−1 | ε value (molar absorptivity coefficient) ([2]; at 374 nm): 8,785 L mol^−1 cm^−1
Structure (SMILES): CCCCCCCCCCCCCCCc1cccc(O)c1C(=O)c1cc(OC)ccc1O [Compound 5, (2-Hydroxy-5-methoxyphenyl)(2-hydroxy-6-pentadecylphenyl)methanone]

ε value (molar absorptivity coefficient) ([2]; at 287 nm): 34,096 L mol^−1 cm^−1 | ε value (molar absorptivity coefficient) ([2]; at 358 nm): 25,014 L mol^−1 cm^−1
Structure (SMILES): CCCCCCCCCCCCCCCc1cccc(O)c1C(=O)c1cc(OC)c(OC)cc1O [Compound 6, (2-Pentadecyl-6-hydroxyphenyl)(2-hydroxy-4,5-dimethoxyphenyl)methanone]

experimental ε value (molar absorptivity coefficient) ([2]; at 279 nm): 47,909 L mol^−1 cm^−1
Structure (SMILES): CCCCCCCCCCCCCCCc1ccc(C(=O)c2ccccc2)c(O)c1 [Compound 9, (2-Hydroxy-4-pentadecylphenyl)(phenyl)methanone]

experimental ε value (molar absorptivity coefficient) ([2]; at 282 nm): 31700 L/mol/cm
Structure (SMILES): CCCCCCCCCCCCCCCc1ccc(C(=O)c2ccccc2O)c(O)c1 [Compound 10, (2-hydroxy-4-pentadecylphenyl)(2-hydroxyphenyl)methanone]

experimental ε value (molar absorptivity coefficient) ([2]; at 314 nm): 20,403 L mol^−1 cm^−1
Structure (SMILES): CCCCCCCCCCCCCCCc1ccc(C(=O)/C=C/c2ccccc2)c(O)c1 [Compound 13a, (E)-1-(2-hydroxy-4-pentadecylphenyl)-3-phenylprop-2-en-1-one]

experimental ε value (molar absorptivity coefficient) ([2]; at 314 nm): 39900 L/mol/cm | experimental ε value (molar absorptivity coefficient) ([2]; at 345 nm): 45000 L/mol/cm
Structure (SMILES): CCCCCCCCCCCCCCCc1ccc2c(=O)c(O)c(-c3ccccc3)oc2c1 [Compound 13b, 3-Hydroxy-7-pentadecyl-2-phenyl-4H-chromen-4-one]

ε value (molar absorptivity coefficient) ([2]; at 254 nm): 23800 L/mol/cm
Structure (SMILES): CCCCCCCCCCCCCCCc1cc(O)c2c(=O)c3c(O)cccc3oc2c1 [Compound 14, 1,8-Dihydroxy-3-pentadecyl-9H-xanthen-9-one]

ε value (molar absorptivity coefficient) ([2]; at 278 nm): 29,252 L mol^−1 cm^−1
Structure (SMILES): CCCCCCCCCCCCCCCc1ccc(-c2nc(-c3ccccc3)nc(-c3ccccc3)n2)c(O)c1 [Compound 20, 2-(4,6-Diphenyl-1,3,5-triazin-2-yl)-5-pentadecylphenol]

experimental ε value (molar absorptivity coefficient) ([2]; at 300 nm): 21,452 L mol^−1 cm^−1 | experimental ε value (molar absorptivity coefficient) ([2]; at 364 nm): 12500 L/mol/cm
Structure (SMILES): CCCCCCCCCCCCCCCc1ccc(-c2nc(-c3ccc(CCCCCCCCCCCCCCC)cc3O)nc(-c3ccc(CCCCCCCCCCCCCCC)cc3O)n2)c(O)c1 [Compound 21, 6,6′,6″-(1,3,5-Triazine-2,4,6-triyl)tris(3-pentadecylphenol)]

experimental ε value (molar absorptivity coefficient) ([2]; at 293 nm): 3,373 L mol^−1 cm^−1 | experimental ε value (molar absorptivity coefficient) ([2]; at 326 nm): 6,367 L mol^−1 cm^−1
Structure (SMILES): CCCCCCCCCCCCCCCc1ccc(-c2nnc(-c3ccc(OC)c(OC)c3)o2)c(O)c1 [Compound 23, 2-[5-(3,4-Dimethoxyphenyl)-1,3,4-oxadiazol-2-yl]-5-pentadecylphenol]

Structure (SMILES): COc1ccc(C(=O)CC(=O)c2ccc(C(C)(C)C)cc2)cc1 [avobenzone]
experimental molar absorption coefficient ([1]; at 310 nm): 31,670

Structure (SMILES): COc1ccc(C(=O)c2ccccc2)c(O)c1 [oxybenzone]
experimental molar absorption coefficient ([1]; at 287 nm): 15,150
